Data as given in patent publication US6362369B1, “Phthalic acid diamide derivatives fluorine-containing aniline compounds as starting material, agricultural and horticultural insecticides, and a method for application of the insecticides” (Nihon Nohyaku Co., Ltd., priority 1997, dated 2002).

What was measured:
[1] = tested on: diamondback moth (Plutella xylostella); assay: Insecticidal effect on diamondback moth (Test Example 1); format: in vivo; settings: for Insecticidal effect, Test Example 1 / Insecticidal effect (Test Example 1), judged from mortality: diamondback moth; for Insecticidal effect on diamondback moth (Test Example 1), judged grade: mortality judged according to the criterion shown in Test Example 1; for Insecticidal effect (Test Example 1), judged from mortality: judged by the criterion of Test Example 1
How it was run: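 Triplicate groups of 10 insects were scored: six days after immersion of oviposited Chinese cabbage seedlings and holding at 25 °C post air-drying, hatched larvae were counted. Mortality derived from these counts and insecticidal effect judged by a set criterion.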

[2] = tested on: rice leafroller (Cnaphalocrocis medinalis); assay: Insecticidal effect on rice leafroller (Test Example 3); format: in vivo; settings: 500 ppm, 25° C., humidity 70%; for Insecticidal effect, Test Example 3: rice lamina immersed; for Insecticidal effect, Test Example 3 / Insecticidal effect on rice leafroller (Test Example 3), judged grade: four days after inoculation; for Insecticidal effect on rice leafroller (Test Example 3), judged grade / Insecticidal effect (Test Example 3), judged from mortality: rice lamina dip; for Insecticidal effect on rice leafroller (Test Example 3), judged grade: third-instar larvae; for Insecticidal effect (Test Example 3), judged from mortality: 4 days after inoculation
Protocol: Insecticidal effect on rice leafroller (Cnaphalocrocis medinalis)
After air-drying, the lamina was placed in a plastic Petri dish with a diameter of 9 cm whose bottom had been covered with a wetted filter paper. The lamina was inoculated with third-instar larvae of rice leafroller, after which the dish was allowed to stand in a room thermostated at 25° C. and having a humidity of 70%. Four days after the inoculation, the dead and alive were counted and the insecticidal effect was judged according to the criterion shown in Test Example 1. The test was carried out with triplicate groups of 10 insects.

[3] = judged by the mortality criterion of Test Example 1
[4] = third-instar larvae of rice leafroller
[5] = mortality judged by criterion of Test Example 1
[6] = rice leafroller third-instar larvae

Cc1cc(OC(F)(F)Br)ccc1NC(=O)c1c(Cl)cccc1C(=O)NC(C)C [compound 238]
Insecticidal effect, Test Example 1 [1, 3]: A (100)
Insecticidal effect, Test Example 3 [2, 4]: A (100)

CC(C)NC(=O)c1cccc(Cl)c1C(=O)Nc1ccc(OC(F)F)c(Cl)c1 [compound 232]
Insecticidal effect, Test Example 1 [1, 3]: A (100)
Insecticidal effect, Test Example 3 [2, 4]: A (100)

CC(C)NC(=O)c1c(Cl)cccc1C(=O)Nc1ccc(-c2ccccc2)cc1 [compound 110]
Insecticidal effect, Test Example 1 [1, 3]: A (100)
Insecticidal effect, Test Example 3 [2, 4]: A (100)

CC(C)NC(=O)c1ccccc1C(=O)Nc1ccc(SC(F)(F)F)cc1 [compound 995]
Insecticidal effect, Test Example 1 [1, 5]: A (100)
Insecticidal effect, Test Example 3 [2, 6]: A (100)

Cc1cc(C#CC(C)(C)C)ccc1NC(=O)c1cccc(Cl)c1C(=O)NC(C)C [compound 1301]
Insecticidal effect, Test Example 1 [1, 5]: A (100)
Insecticidal effect, Test Example 3 [2, 6]: A (100)

Cc1cc(Oc2ncc(C(F)(F)F)cc2Cl)ccc1NC(=O)c1c(F)cccc1C(=O)NC(C)C [compound 577]
Insecticidal effect on diamondback moth (Test Example 1), judged grade [1]: A (100)
Insecticidal effect on rice leafroller (Test Example 3), judged grade [2]: A (100)

Cc1cc(OC(F)(F)C(F)F)ccc1NC(=O)c1c(F)cccc1C(=O)NC(C)C [compound 566]
Insecticidal effect on diamondback moth (Test Example 1), judged grade [1]: A (100)
Insecticidal effect on rice leafroller (Test Example 3), judged grade [2]: B (99-90)

Cc1cc(I)ccc1NC(=O)c1c(Cl)cccc1C(=O)NC(C)C [compound 217]
Insecticidal effect, Test Example 1 [1, 3]: A (100)
Insecticidal effect, Test Example 3 [2, 4]: A (100)

CCCc1cc(I)ccc1NC(=O)c1cccc(I)c1C(=O)NC(C)C [compound 952]
Insecticidal effect, Test Example 1 [1, 5]: A (100)
Insecticidal effect, Test Example 3 [2, 6]: A (100)

CCN(CC)C(=O)c1c(F)cccc1C(=O)Nc1ccc(OC(F)(F)F)cc1C [compound 1527]
Insecticidal effect (Test Example 1), judged from mortality [1]: A (100)
Insecticidal effect (Test Example 3), judged from mortality [2, 4]: A (100)

Cc1cc(C(F)(F)C(F)(F)F)ccc1NC(=O)c1cccc(Cl)c1C(=O)N(C)Cc1cccc(Cl)c1 [compound 1578]
Insecticidal effect (Test Example 1), judged from mortality [1]: A (100)
Insecticidal effect (Test Example 3), judged from mortality [2, 4]: A (100)

CC(C)NC(=O)c1cccc(I)c1C(=O)Nc1ccc(OC(F)(F)F)cc1 [compound 418]
Insecticidal effect, Test Example 3 [2, 4]: A (100)

Cc1cc(C(F)(F)C(F)(F)F)ccc1NC(=O)c1c(Cl)cccc1C(=O)NCc1ccc(Cl)cc1Cl [compound 1350]
Insecticidal effect, Test Example 3 [2, 6]: A (100)

CC(C)NC(=O)c1cccc(I)c1C(=O)Nc1ccc(C(F)(F)F)cc1 [compound 415]
Insecticidal effect, Test Example 3 [2, 4]: A (100)

CC(C)NC(=O)c1c(I)cccc1C(=O)Nc1ccc(OC(F)(F)F)cc1 [compound 352]
Insecticidal effect, Test Example 3 [2, 4]: A (100)

Cc1cc(C(F)(F)C(F)(F)F)ccc1NC(=O)c1c(Cl)cccc1C(=O)NCc1ccccc1 [compound 1308]
Insecticidal effect, Test Example 3 [2, 6]: C (89-80)

CC(C)NC(=O)c1cccc(F)c1C(=O)Nc1ccc(C(F)(F)C(F)(F)C(F)(F)C(F)(F)F)cc1 [compound 536]
Insecticidal effect on rice leafroller (Test Example 3), judged grade [2]: A (100)

CCOP(=O)(OCC)c1ccc(NC(=O)c2ccccc2C(=O)NC(C)C)c(C)c1 [compound 81]
Insecticidal effect, Test Example 3 [2, 4]: A (100)

CCN(CC)C(=O)c1cccc([N+](=O)[O-])c1C(=O)Nc1ccc(Cl)cc1C [compound 1138]
Insecticidal effect, Test Example 3 [2, 6]: A (100)

Cc1cc(C(F)(F)C(F)(F)F)ccc1NC(=O)c1c(I)cccc1C(=O)N1CC(C)CC(C)C1 (centres unmarked) [compound 1140]
Insecticidal effect, Test Example 3 [2, 6]: A (100)

COC(Oc1ccc(NC(=O)c2cccc(Cl)c2C(=O)NC(C)C)c(C)c1)=C(C(F)(F)F)C(F)(F)F [compound 1293]
Insecticidal effect, Test Example 3 [2, 6]: A (100)

Cc1cc(C(F)(F)C(F)(F)F)ccc1NC(=O)c1c(Cl)cccc1C(=O)NCc1ccccc1Cl [compound 1310]
Insecticidal effect, Test Example 3 [2, 6]: B (99-90)

Cc1cc(OC(F)F)ccc1NC(=O)c1c(SCC(F)(F)F)cccc1C(=O)NC(C)C [compound 798]
Insecticidal effect on rice leafroller (Test Example 3), judged grade [2]: A (100)

Cc1cc(Cl)ccc1NC(=O)c1cccc(C(F)(F)F)c1C(=O)NC(C)C [compound 758]
Insecticidal effect on rice leafroller (Test Example 3), judged grade [2]: A (100)

Cc1cc(OC(F)(F)F)ccc1NC(=O)c1cc(Cl)cc(Cl)c1C(=O)NC(C)C [compound 1224]
Insecticidal effect, Test Example 3 [2, 6]: B (99-90)

Cc1cc(C(F)(C(F)(F)F)C(F)(F)F)ccc1NC(=O)c1cc(Cl)cc(Cl)c1C(=O)NC(C)C [compound 1226]
Insecticidal effect, Test Example 3 [2, 6]: A (100)

Cc1cc(Br)ccc1NC(=O)c1cccc([S+](C)[O-])c1C(=O)NC(C)C (centres unmarked) [compound 790]
Insecticidal effect on rice leafroller (Test Example 3), judged grade [2]: A (100)

Cc1cc(C(F)(F)C(F)(F)F)ccc1NC(=O)c1c(I)cccc1C(=O)N(C(C)C)C(C)C [compound 1072]
Insecticidal effect, Test Example 3 [2, 6]: A (100)

CCCCc1ccc(NC(=O)c2cccc([N+](=O)[O-])c2C(=O)NC(C)C)cc1 [compound 605]
Insecticidal effect on rice leafroller (Test Example 3), judged grade [2]: C (89-80)

Cc1cc(C(F)(F)C(F)(F)F)ccc1NC(=O)c1c(Cl)cccc1C(=O)NC(C)(C)C#Cc1ccccc1 [compound 1480]
Insecticidal effect (Test Example 3), judged from mortality [2, 4]: A (100)

Cc1ccc(NC(=O)c2ccccc2C(=O)NC(C)C)c(C)c1 [compound 44]
Insecticidal effect, Test Example 3 [2, 4]: A (100)

CC(C)NC(=O)c1c(I)cccc1C(=O)Nc1ccc(C(F)(F)F)cc1 [compound 349]
Insecticidal effect, Test Example 3 [2, 4]: A (100)

Cc1cc(C(F)(F)C(F)(F)F)ccc1NC(=O)c1c(Cl)cccc1C(=O)NC(CO)c1ccc(Cl)cc1 (centres unmarked) [compound 1416]
Insecticidal effect, Test Example 3 [2, 6]: A (100)

CCC(C)CNC(=O)c1cccc(I)c1C(=O)Nc1ccc(C(F)(F)C(F)(F)F)cc1C (centres unmarked) [compound 1027]
Insecticidal effect, Test Example 3 [2, 6]: A (100)

Cc1cc(C(F)(F)C(F)(F)F)ccc1NC(=O)c1cc(Cl)cc(Cl)c1C(=O)NC(C)C [compound 1225]
Insecticidal effect, Test Example 3 [2, 6]: A (100)

Cc1cc(OC(F)F)ccc1NC(=O)c1cccc(I)c1C(=O)NCc1ccccc1Cl [compound 1432]
Insecticidal effect, Test Example 3 [2, 6]: A (100)

CC(C)NC(=O)c1ccccc1C(=O)Nc1ccc(C(F)(F)C(F)(F)C(F)(F)C(F)(F)F)cc1 [compound 28]
Insecticidal effect, Test Example 3 [2, 4]: A (100)

Cc1cc(OC(F)F)ccc1NC(=O)c1c(C(=O)NC(C)C)cccc1[S+]([O-])CC(F)(F)F (centres unmarked) [compound 800]
Insecticidal effect on rice leafroller (Test Example 3), judged grade [2]: C (89-80)

Cc1cc(C(F)(F)C(F)(F)F)c(C)cc1NC(=O)c1cccc(I)c1C(=O)NC(C)C [compound 1655]
Insecticidal effect (Test Example 3), judged from mortality [2, 4]: A (100)

COC(=O)c1ccc(NC(=O)c2ccccc2C(=O)NC(C)C)c(C)c1 [compound 71]
Insecticidal effect, Test Example 3 [2, 4]: D (79-50)

Cc1cc(C(F)(F)C(F)(F)F)ccc1NC(=O)c1c(I)cccc1C(=O)NCCC(C)C [compound 1016]
Insecticidal effect, Test Example 3 [2, 6]: A (100)

CC(C)NC(=O)c1c(C(=O)Nc2cccc3c2CCC3)cccc1[N+](=O)[O-] [compound 735]
Insecticidal effect on rice leafroller (Test Example 3), judged grade [2]: D (79-50)

Cc1cc(OC(F)(F)F)ccc1NC(=O)c1c(I)cccc1C(=O)NC(C)(C)CO [compound 1520]
Insecticidal effect (Test Example 3), judged from mortality [2, 4]: A (100)

CCCCCCNC(=O)c1cccc(I)c1C(=O)Nc1ccc(C(F)(F)C(F)(F)F)cc1C [compound 950]
Insecticidal effect, Test Example 3 [2, 6]: C (89-80)

Cc1c(Cl)cccc1NC(=O)c1c(C(=O)NC(C)C)cccc1C(F)(F)F [compound 765]
Insecticidal effect on rice leafroller (Test Example 3), judged grade [2]: A (100)

Cc1ccc(C#CC(C)(C)NC(=O)c2c(Cl)cccc2C(=O)Nc2ccc(C(F)(F)C(F)(F)F)cc2C)cc1 [compound 1570]
Insecticidal effect (Test Example 3), judged from mortality [2, 4]: A (100)

Cc1cc(SC(F)(F)C(F)(F)F)ccc1NC(=O)c1c(I)cccc1C(=O)NC(C)C [compound 910]
Insecticidal effect on rice leafroller (Test Example 3), judged grade [2]: A (100)

Cc1c(NC(=O)c2cccc(I)c2C(=O)NC(C)C)ccc(C(F)(F)C(F)(F)F)c1C [compound 1640]
Insecticidal effect (Test Example 3), judged from mortality [2, 4]: A (100)

Cc1cc(C#CC(C)(C)C)ccc1NC(=O)c1c(I)cccc1C(=O)NC(C)C [compound 1306]
Insecticidal effect, Test Example 3 [2, 6]: A (100)

Cc1cc(C(F)(F)C(F)(F)F)ccc1NC(=O)c1c(Cl)cccc1C(=O)NCCc1ccc(Cl)cc1 [compound 1361]
Insecticidal effect, Test Example 3 [2, 6]: A (100)

Cc1cc(OC(F)F)ccc1NC(=O)c1cccc(C(F)(F)F)c1C(=O)NC(C)C [compound 759]
Insecticidal effect on rice leafroller (Test Example 3), judged grade [2]: D (79-50)
